# From US20240132484A1, “BROAD SPECTRUM ANTIVIRAL COMPOUNDS TARGETING THE SKI COMPLEX” (priority 2020, published 2024)
# Where “and” joins values, the source holds several entries; their conditions need not be identical. Identical values can stand only once. Like-named read-outs stand apart in the source and are kept apart here.
# How the values were obtained:
# SARS2 = assay type: cell-based, SARS-CoV-2; conditions: for Percentage Infection Relative to Appropriate DMSO Control: Exp 3 (SMW480), avg background subtraction
# WDR61 = WDR61 (Homo sapiens, UniProt Q9GZS3); assay: Surface Plasmon Resonance with pure WDR61 protein
# cells (nuclei count) = conditions: for Toxicity Data: Average, Mean: average of Exp 1-3 (SMW475, SMW477, SMW478), n 9; for Toxicity Data, Percentage Relative to Appropriate DMSO Control, Mean: Average of Exp 1 and Exp 2, n=4; for Toxicity Data, Percentage Relative to Appropriate DMSO Control: single wells
smiles,measurement,setting,value
COc1ccc(CNCCc2ccccc2F)c(OCC(O)CN2CCN(C)CC2)c1 (racemic) [UMB18G],Percentage Infection Relative to Appropriate DMSO Control,SARS2; 1 uM,54.21% and 61.59% and 57.93%
same,Percentage Infection Relative to Appropriate DMSO Control,SARS2; 5 uM,19.54% and 24.35% and 30.13%
same,Percentage Infection Relative to Appropriate DMSO Control,SARS2; 10 uM,53.71% and 59.47% and 34.88%
same,Percentage Infection Relative to Appropriate DMSO Control,SARS2; 25 uM,−0.67% and 2.60% and 2.37%
same,Percentage Infection Relative to Appropriate DMSO Control,SARS2; 50 uM,−1.69% and −2.08% and −2.66%
same,Percentage Inhibition Average 1 μM,"SARS2; SARS2, 1 μM",40.42%
same,Screening data (Relative infection to DMSO controls) Average 1 μM,"SARS2; SARS2, 1 μM, 100=DMSO control",59.58
same,Percentage Inhibition Average 5 μM,"SARS2; SARS2, 5 μM",68.79%
same,Screening data (Relative infection to DMSO controls) Average 5 μM,"SARS2; SARS2, 5 μM, 100=DMSO control",31.21
same,Percentage Inhibition Average 10 μM,"SARS2; SARS2, 10 μM",90.05%
same,Screening data (Relative infection to DMSO controls) Average 10 μM,"SARS2; SARS2, 10 μM, 100=DMSO control",9.95
same,Percentage Inhibition Average 25 μM,"SARS2; SARS2, 25 μM",93.14%
same,Screening data (Relative infection to DMSO controls) Average 25 μM,"SARS2; SARS2, 25 μM, 100=DMSO control",6.86
same,Percentage Inhibition Average 50 μM,"SARS2; SARS2, 50 μM",94.65%
same,Screening data (Relative infection to DMSO controls) Average 50 μM,"SARS2; SARS2, 50 μM, 100=DMSO control",5.35
same,Average (relative infection to DMSO over the 5 tested concentrations),"SARS2; SARS2, average over 1 to 50 uM, 100=DMSO control",22.59
same,direct binding to WDR61 by SPR,WDR61,binding directly to WDR61
same,"Toxicity Data: Average, Mean",cells (nuclei count); 1 uM,125.37%
same,"Relative cell count to DMSO controls, Average 1 μM","cells (nuclei count); 1 μM, toxicity data, 100=DMSO control",123.37
same,"Toxicity Data: Average, Mean",cells (nuclei count); 5 uM,151.57%
same,"Relative cell count to DMSO controls, Average 5 μM","cells (nuclei count); 5 μM, toxicity data, 100=DMSO control",134.20
same,"Toxicity Data: Average, Mean",cells (nuclei count); 10 uM,148.72%
same,"Relative cell count to DMSO controls, Average 10 μM","cells (nuclei count); 10 μM, toxicity data, 100=DMSO control",139.68
same,"Toxicity Data: Average, Mean",cells (nuclei count); 25 uM,110.49%
same,"Relative cell count to DMSO controls, Average 25 μM","cells (nuclei count); 25 μM, toxicity data, 100=DMSO control",116.94
same,"Toxicity Data: Average, Mean",cells (nuclei count); 50 uM,58.67%
same,"Relative cell count to DMSO controls, Average 50 μM","cells (nuclei count); 50 μM, toxicity data, 100=DMSO control",85.72
same,"Toxicity Data, Average, Mean","cells (nuclei count); Average of Exp 1-3, n 9, 1 uM",108.03%
same,"Toxicity Data, Average, Mean","cells (nuclei count); Average of Exp 1-3, n 9, 5 uM",120.64%
same,"Toxicity Data, Average, Mean","cells (nuclei count); Average of Exp 1-3, n 9, 10 uM",114.41%
same,"Toxicity Data, Average, Mean","cells (nuclei count); Average of Exp 1-3, n 9, 25 uM",112.46%
same,"Toxicity Data, Average, Mean","cells (nuclei count); Average of Exp 1-3, n 9, 50 uM",78.15%
same,"Toxicity Data, Percentage Relative to Appropriate DMSO Control, Mean",cells (nuclei count); 1 uM,121.38% and 131.60%
same,"Toxicity Data, Percentage Relative to Appropriate DMSO Control, Mean",cells (nuclei count); 5 uM,129.65% and 137.65%
same,"Toxicity Data, Percentage Relative to Appropriate DMSO Control, Mean",cells (nuclei count); 10 uM,137.10% and 131.04%
same,"Toxicity Data, Percentage Relative to Appropriate DMSO Control, Mean",cells (nuclei count); 25 uM,118.22% and 120.31%
same,"Toxicity Data, Percentage Relative to Appropriate DMSO Control, Mean",cells (nuclei count); 50 uM,93.28% and 100.37%
same,"Toxicity Data, nuclei count relative to DMSO controls","cells (nuclei count); Exp 1 (SMW454), 1 uM",94.8% and 106.7% and 107.9%
same,"Toxicity Data, nuclei count relative to DMSO controls","cells (nuclei count); Exp 1 (SMW454), 5 uM",92.6% and 104.0% and 109.1%
same,"Toxicity Data, nuclei count relative to DMSO controls","cells (nuclei count); Exp 1 (SMW454), 10 uM",94.4% and 107.2% and 106.3%
same,"Toxicity Data, nuclei count relative to DMSO controls","cells (nuclei count); Exp 1 (SMW454), 25 uM",98.3% and 107.4% and 105.6%
same,"Toxicity Data, nuclei count relative to DMSO controls","cells (nuclei count); Exp 1 (SMW454), 50 uM",95.5% and 101.6% and 97.7%
same,"Toxicity Data, Percentage Relative to Appropriate DMSO Control","cells (nuclei count); Exp 1 (SMW506), 10 uM",114% and 126% and 122%
same,"Toxicity Data, Percentage Relative to Appropriate DMSO Control","cells (nuclei count); Exp 1 (SMW506), 25 uM",111% and 119% and 121%
same,"Toxicity Data, nuclei count relative to DMSO controls","cells (nuclei count); Exp 2 (SMW466), 1 uM",77.1% and 105.3% and 105.6%
same,"Toxicity Data, nuclei count relative to DMSO controls","cells (nuclei count); Exp 2 (SMW466), 5 uM",80.8% and 132.0% and 142.0%
same,"Toxicity Data, nuclei count relative to DMSO controls","cells (nuclei count); Exp 2 (SMW466), 10 uM",78.2% and 135.1% and 144.2%
same,"Toxicity Data, nuclei count relative to DMSO controls","cells (nuclei count); Exp 2 (SMW466), 25 uM",68.6% and 126.9% and 132.7%
same,"Toxicity Data, Percentage Relative to Appropriate DMSO Control","cells (nuclei count); Exp 2 (SMW507), 5 uM",144% and 156% and 158%
same,"Toxicity Data, Percentage Relative to Appropriate DMSO Control","cells (nuclei count); Exp 2 (SMW507), 10 uM",148% and 160% and 140%
same,"Toxicity Data, nuclei count relative to DMSO controls","cells (nuclei count); Exp 3 (SMW480), 1 uM",110.1% and 127.5% and 137.1%
same,"Toxicity Data, nuclei count relative to DMSO controls","cells (nuclei count); Exp 3 (SMW480), 5 uM",113.4% and 154.3% and 157.5%
same,"Toxicity Data, nuclei count relative to DMSO controls","cells (nuclei count); Exp 3 (SMW480), 10 uM",89.6% and 123.8% and 150.9%
same,"Toxicity Data, nuclei count relative to DMSO controls","cells (nuclei count); Exp 3 (SMW480), 50 uM",60.8% and 69.5% and 85.1%
same,"Relative cell count to DMSO controls, Average (for correlation analysis)",cells (nuclei count); average value over the 5 tested concentrations (1 to 50 uM),119.98
